The values that follow come from ChEMBL document CHEMBL2331290, “4-Hydroxypyridazin-3(2H)-one derivatives as novel D-amino acid oxidase inhibitors” (J Med Chem, 2013).

As usually defined, the IC50 is the midpoint of a concentration-inhibition curve.

Data set [1] in a line: Effective permeability of the compound at pH 6.5 after 2 hrs by PAMPA. The format is ADME. Conditions: read-out: Peff. In general terms: In PAMPA a lipid-coated filter parts donor from acceptor wells.
Data set [2] deals with T1, D-amino-acid oxidase (Homo sapiens, UniProt P14920). Kind of data set: Inhibition of human recombinant DAAO after 30 mins by plate reader analysis.
The target in data set [3] is T1, D-amino-acid oxidase.
Description: Inhibition of DAAO (unknown origin) by cell based assay
For another data set, the system named is HEK293. In words: Cytotoxicity against HEK293 cells overexpressing human full length DAAO by Alamar Blue assay. It counts as cell-based. (Alamar Blue is a resazurin reagent that responds to reducing activity.)
The target of data set [4] is D-amino-acid oxidase (Rattus norvegicus, UniProt O35078).
Description: Inhibition of rat full length DAAO overexpressed in HEK293 cells after 30 mins by plate reader analysis
For data set [5], the target named is D-amino-acid oxidase (Mus musculus, UniProt P18894).
Description: Inhibition of mouse full length DAAO overexpressed in HEK293 cells after 30 mins by plate reader analysis
In data set [6] the target is T1, D-amino-acid oxidase. The source holds these as a separate data set.
Description: Inhibition of human full length DAAO overexpressed in HEK293 cells after 30 mins by plate reader analysis
Data set [7] can be described thus: Drug uptake in ddY mouse brain at 30 mg/kg, po after 30 mins by LC-MS/MS analysis. The format is ADME, organism-based. Conditions: read-out: Drug uptake. Details: dose 30 mg/kg, route oral.
Data set [8] is described as follows: Plasma concentration in ddY mouse at 30 mg/kg, po after 30 mins by LC-MS/MS analysis. The format is ADME, organism-based. Details: dose 30 mg/kg, route oral.

T1 sequence (P14920 whole entry): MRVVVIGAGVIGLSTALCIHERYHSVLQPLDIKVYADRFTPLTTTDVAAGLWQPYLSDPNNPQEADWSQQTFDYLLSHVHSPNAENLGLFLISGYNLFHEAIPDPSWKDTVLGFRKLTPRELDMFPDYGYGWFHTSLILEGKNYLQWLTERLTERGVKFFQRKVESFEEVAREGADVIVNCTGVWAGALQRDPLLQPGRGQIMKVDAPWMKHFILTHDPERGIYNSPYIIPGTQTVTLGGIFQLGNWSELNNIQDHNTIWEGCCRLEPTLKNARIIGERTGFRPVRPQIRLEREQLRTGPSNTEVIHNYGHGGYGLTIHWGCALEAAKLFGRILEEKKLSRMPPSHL
Chain of D-amino-acid oxidase (Rattus norvegicus, UniProt O35078) (O35078 whole entry): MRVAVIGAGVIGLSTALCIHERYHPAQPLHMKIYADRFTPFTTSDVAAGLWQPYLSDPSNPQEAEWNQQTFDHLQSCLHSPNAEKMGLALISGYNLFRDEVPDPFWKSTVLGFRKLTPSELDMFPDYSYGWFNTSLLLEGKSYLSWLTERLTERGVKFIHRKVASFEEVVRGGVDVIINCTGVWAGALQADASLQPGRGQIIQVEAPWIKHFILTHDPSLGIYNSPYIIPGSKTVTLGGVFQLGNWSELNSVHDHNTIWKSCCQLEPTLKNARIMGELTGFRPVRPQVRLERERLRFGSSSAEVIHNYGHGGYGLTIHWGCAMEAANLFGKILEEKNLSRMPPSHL
Chain of D-amino-acid oxidase (Mus musculus, UniProt P18894) (P18894 whole entry): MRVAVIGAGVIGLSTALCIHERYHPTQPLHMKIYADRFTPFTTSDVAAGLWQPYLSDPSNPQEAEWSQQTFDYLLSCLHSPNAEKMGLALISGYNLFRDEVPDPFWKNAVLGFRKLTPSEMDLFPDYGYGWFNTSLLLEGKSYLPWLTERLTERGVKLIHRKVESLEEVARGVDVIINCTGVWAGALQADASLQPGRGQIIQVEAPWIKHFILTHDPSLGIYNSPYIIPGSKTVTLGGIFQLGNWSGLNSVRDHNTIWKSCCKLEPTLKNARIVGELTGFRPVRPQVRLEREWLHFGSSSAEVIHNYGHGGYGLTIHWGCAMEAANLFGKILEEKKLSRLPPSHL

For `O=c1[nH]c2ccccc2cc1O`, the Papp at 2 h in data set [1] came to 18.2 ×10⁻⁶ cm/s.

Consider `O=c1[nH]cc(Cl)cc1O`, for which the Papp at 2 h in data set [1] stood at 6.4 ×10⁻⁶ cm/s. Moreover, the values for the IC50 at D-amino-acid oxidase [2] and on D-amino-acid oxidase [3] were 47 nM and 930 nM, respectively.

For the compound `Cc1c[nH]c(=O)c(O)c1`, the Activity result with HEK293 is listed as “Toxic”. The half-maximal inhibitory concentration (IC50) at D-amino-acid oxidase [2] stood at 140 nM.

For `O=c1[nH]cc(CCc2ccccc2)cc1O`, the Activity result in the data set on HEK293 is “Toxic”. For the same compound, the Papp at 2 h in [1] is more than 30 ×10⁻⁶ cm/s.

As for `O=c1[nH]nc(CCc2ccccc2)cc1O`, the values for the half-inhibitory concentration (IC50) at D-amino-acid oxidase [4] and at D-amino-acid oxidase [5] were 4.6 nM and 3.3 nM, respectively.

Turning to `CC(c1ccccc1)c1cc(O)c(=O)[nH]n1` (stereo not drawn), the IC50 on D-amino-acid oxidase [4] was found to be 3.1 nM; at D-amino-acid oxidase [5], 2.8 nM.

Turning to `O=c1[nH]nc(CCCc2ccccc2)cc1O`, the 50% inhibitory concentration (IC50) on D-amino-acid oxidase [4] was determined as 1220 nM; against D-amino-acid oxidase [5], 426 nM.

On to `O=c1[nH]nc(CCC2CCCCC2)cc1O`, for which the IC50 is 8.2 nM at D-amino-acid oxidase [4] and 3.2 nM against D-amino-acid oxidase [5].

With `O=c1[nH]nc(CCc2ccc(Cl)cc2)cc1O`, the half-maximal inhibitory concentration (IC50) against D-amino-acid oxidase [4] stood at 2.4 nM; against D-amino-acid oxidase [5] it was 1.9 nM.

Consider `O=c1[nH]nc(/C=C/c2ccc(Cl)cc2)cc1O`, for which the half-inhibitory concentration (IC50) stood at 120 nM on D-amino-acid oxidase [2], 470 nM against D-amino-acid oxidase [4], 240 nM against D-amino-acid oxidase [5] and 570 nM on D-amino-acid oxidase [6].

Consider `O=c1[nH]nc(C2CCCCC2)cc1O`, for which the IC50 at D-amino-acid oxidase [2] is 300 nM; on D-amino-acid oxidase [4], more than 1000 nM; at D-amino-acid oxidase [5], more than 1000 nM; against D-amino-acid oxidase [6] it was more than 1000 nM.

Consider `CC(C)(C)CCc1cc(O)c(=O)[nH]n1`, for which the half-inhibitory concentration (IC50) at D-amino-acid oxidase [2] was 670 nM; against D-amino-acid oxidase [4], more than 1000 nM; at D-amino-acid oxidase [5] it was more than 1000 nM; at D-amino-acid oxidase [6], more than 1000 nM.

Take `O=c1cc(COc2ccccc2)[nH]nc1O`: the IC50 was 6.5 nM at D-amino-acid oxidase [4] and 4.6 nM against D-amino-acid oxidase [5].

Turning to `O=c1[nH]nc(CCc2ccccc2F)cc1O`, the IC50 at D-amino-acid oxidase [4] is 4.9 nM; at D-amino-acid oxidase [5], 3.6 nM.

Consider `O=c1[nH]nc(CCc2ccccc2C(F)(F)F)cc1O`, for which the 50% inhibitory concentration (IC50) against D-amino-acid oxidase [4] was 41 nM; against D-amino-acid oxidase [5], 7.1 nM.

For `O=c1[nH]nc(CCc2cccc(F)c2)cc1O`, the IC50 was 2.6 nM against D-amino-acid oxidase [4] and 1.9 nM against D-amino-acid oxidase [5].

Take `COc1cccc(CCc2cc(O)c(=O)[nH]n2)c1`: the values for the IC50 against D-amino-acid oxidase [4] and against D-amino-acid oxidase [5] were 5.6 nM and 4.4 nM, respectively.

In the case of `O=c1[nH]nc(CCc2ccc(F)cc2)cc1O`, the concentration for half-maximal inhibition (IC50) stood at 2.2 nM on D-amino-acid oxidase [4] and 2.5 nM at D-amino-acid oxidase [5].

As for `COc1ccc(CCc2cc(O)c(=O)[nH]n2)cc1`, the 50% inhibitory concentration (IC50) against D-amino-acid oxidase [4] amounted to 3.8 nM; against D-amino-acid oxidase [5], 3.6 nM.

In the case of `O=c1[nH]nc(CCc2cc(F)cc(F)c2)cc1O`, the concentration at 0.5 h worked out at 460 ng/mL in data set [7] and 6540 ng/mL in data set [8]. The IC50 against D-amino-acid oxidase [4] stood at 16 nM; against D-amino-acid oxidase [5], 4.4 nM.

As for `O=c1[nH]nc(CCc2cc(C(F)(F)F)cc(C(F)(F)F)c2)cc1O`, the 50% inhibitory concentration (IC50) at D-amino-acid oxidase [4] was determined as 1900 nM; at D-amino-acid oxidase [5], 490 nM.

Take `COc1cc(CCc2cc(O)c(=O)[nH]n2)cc(OC)c1`: the half-maximal inhibitory concentration (IC50) at D-amino-acid oxidase [4] amounted to 19 nM; on D-amino-acid oxidase [5] it was 12 nM.

In the case of `Oc1cccnc1O`, the IC50 at D-amino-acid oxidase [2] was 1150 nM.

For the compound `O=C(O)c1cc2sccc2[nH]1`, the Papp at 2 h in data set [1] was 0.8 ×10⁻⁶ cm/s. Also, the half-maximal inhibitory concentration (IC50) at D-amino-acid oxidase [2] came out at 1.4 nM; on D-amino-acid oxidase [3] it was 147 nM.

For `O=c1[nH]nc(CCc2ccc(C(F)(F)F)cc2)cc1O` [LUVADAXISTAT], the results for the IC50 against D-amino-acid oxidase [4] and on D-amino-acid oxidase [5] were 5 nM and 5.9 nM, respectively.
